We go through 11 compounds from PubChem BioAssay (NCI).

Among the test systems are SF-295 CNS; SK-MEL-5 melanoma; KM12 colon; DMS 273 small cell lung; COLO 205 colon; DLD-1 colon; NCI/ADR-RES ovarian; PC-3 prostate; MDA-MB-435; KM20L2 colon.
What all share (test): growth of human tumour cells (NCI), 48 h

Several values for one entry are separate records, joined by “and”; a condition that tells them apart may be missing. Identical values can stand only once.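 96-well plates; 48 h exposure; 5 concentrations. Endpoints by linear interpolation between flanking doses. Not reached: highest tested concentration assigned. GI50 is the concentration that inhibits growth by half. TGI: total growth inhibition.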

Regarding `C#CCOCn1cnc2ncnc(N)c21`, the TGI in the assay with SF-295 CNS, in the assay with SK-MEL-5 melanoma, in the assay with KM12 colon, with DMS 273 small cell lung, in the assay on COLO 205 colon and with DLD-1 colon was over 100 µM in each case.
Take `CNC(c1ccncc1)C(NC)c1ccncc1` (stereo not drawn): the TGI with NCI/ADR-RES ovarian, in the assay on SF-295 CNS, in the assay on PC-3 prostate, in the assay on SK-MEL-5 melanoma, in the assay with KM12 colon and in the assay with COLO 205 colon was over 100 µM in each case. The TGI in the assay on MDA-MB-435 was over 100 µM.
Turning to `COc1cc(/C=N/NC(=O)c2ccccc2Nc2cccc(C(F)(F)F)c2)cc(OC)c1OC`, the GI50 is 3.87 µM in the assay on NCI/ADR-RES ovarian; 0.471 µM in the assay on SF-295 CNS; 3.34 µM in the assay with PC-3 prostate; 2.93 µM with SK-MEL-5 melanoma; 1.29 µM with KM12 colon; 2.72 µM in the assay with COLO 205 colon. The GI50 with MDA-MB-435 is 0.476 µM. Further, the TGI with NCI/ADR-RES ovarian was 14.4 µM; in the assay with SF-295 CNS, 3.04 µM; with PC-3 prostate, over 28.1 µM; with SK-MEL-5 melanoma, 10.8 µM; with KM12 colon, 4.17 µM; with COLO 205 colon it was 9.87 µM. Also, the TGI in the assay with MDA-MB-435 worked out at 1.67 µM.
Regarding `CCCOC(=O)C1C2CCC(O2)C1C(=O)O` (stereo not drawn), the TGI in the assay with NCI/ADR-RES ovarian, in the assay with SF-295 CNS, with PC-3 prostate, with SK-MEL-5 melanoma, with KM12 colon and with COLO 205 colon was over 100 µM throughout. The compound further yielded a TGI in the assay with MDA-MB-435 of over 100 µM.
Turning to `CN1CCN(c2ccc3nc(-c4ccc(OCCCCN5CCN(CCCCN6C(=O)c7cccc8cccc(c78)C6=O)CC5)cc4)[nH]c3c2)CC1`, the GI50 in the assay with NCI/ADR-RES ovarian was over 100 µM; with SF-295 CNS, 62.4 µM; in the assay with PC-3 prostate it was 69.3 µM; in the assay with SK-MEL-5 melanoma it was 18.8 µM; in the assay on KM12 colon, 43.8 µM; in the assay on COLO 205 colon, 96.8 µM. Further, the GI50 in the assay with MDA-MB-435 is 41 µM. The TGI in the assay on NCI/ADR-RES ovarian was over 100 µM; with SF-295 CNS, over 100 µM; with PC-3 prostate it was over 100 µM; in the assay with SK-MEL-5 melanoma it was 76.9 µM; in the assay on KM12 colon, over 100 µM; with COLO 205 colon, over 100 µM. The same compound registered a TGI with MDA-MB-435 of over 100 µM.
Turning to `COc1cccc2c1cc1c3c(cc4c(c32)OCO4)C(=O)N1`, the GI50 with NCI/ADR-RES ovarian was 2.71 µM; with SF-295 CNS it was 7.27 µM; in the assay with PC-3 prostate it was 3.55 µM; in the assay on SK-MEL-5 melanoma, 4.49 µM; with KM12 colon, 4.09 µM; in the assay on COLO 205 colon, 2.3 µM. For the same compound, in the assay on MDA-MB-435, the GI50 was 10.9 µM. In addition, the TGI in the assay on NCI/ADR-RES ovarian was 7.46 µM; in the assay with SF-295 CNS, 29.1 µM; in the assay with PC-3 prostate it was 24.4 µM; with SK-MEL-5 melanoma, over 100 µM; with KM12 colon, 23.7 µM; with COLO 205 colon, 5.39 µM. This compound returned a TGI with MDA-MB-435 of over 100 µM.
In the case of `O=C(/C=C/c1ccco1)c1ccc(Nc2nc(Nc3ccc(F)cc3)nc(Nc3ccc(F)cc3)n2)cc1`, the GI50 with NCI/ADR-RES ovarian is 15.1 µM; with SF-295 CNS, 23.8 µM; with PC-3 prostate, 6.83 µM; in the assay with SK-MEL-5 melanoma it was 27 µM; in the assay on KM12 colon, 13.3 µM; in the assay with COLO 205 colon, 7.04 µM. For the same compound, in the assay on MDA-MB-435, the GI50 was 16.6 µM. For the same compound, the TGI in the assay on NCI/ADR-RES ovarian is 52.1 µM; in the assay with SF-295 CNS, 48.9 µM; in the assay on PC-3 prostate, 21.9 µM; in the assay with SK-MEL-5 melanoma it was over 100 µM; with KM12 colon, over 100 µM; in the assay with COLO 205 colon, 26.1 µM. Moreover, the TGI in the assay with MDA-MB-435 worked out at 74.4 µM.
Consider `Cc1ccc(S(=O)(=O)NC(CO)C(=O)O)cc1` (stereo not drawn), for which the TGI with NCI/ADR-RES ovarian, with SF-295 CNS, with PC-3 prostate, in the assay with SK-MEL-5 melanoma, in the assay with KM12 colon and with COLO 205 colon was over 100 µM throughout. Further, in the assay with MDA-MB-435, the TGI was over 100 µM.
With `O=C(C=C=Nc1ccccc1)C(=O)N=C=Cc1ccccc1`, the GI50 with NCI/ADR-RES ovarian is 2.95 µM; with SF-295 CNS, 14.5 µM; in the assay on PC-3 prostate, 2.89 µM; in the assay with SK-MEL-5 melanoma it was 5.16 µM; in the assay on KM12 colon, 6.38 µM; in the assay with COLO 205 colon it was 1.89 µM. The GI50 with MDA-MB-435 was 2.33 µM. Also, the TGI is 14.7 µM with NCI/ADR-RES ovarian; 40.9 µM in the assay on SF-295 CNS; 8.91 µM in the assay with PC-3 prostate; 17.7 µM with SK-MEL-5 melanoma; 19.1 µM in the assay on KM12 colon; 3.87 µM in the assay with COLO 205 colon. The TGI in the assay with MDA-MB-435 turned out to be 8 µM.
With `CC(/C=N/N=C(N)N)=N\N=C(N)N`, the GI50 with KM20L2 colon is 47.6 µM; with NCI/ADR-RES ovarian it was 20.8 µM; in the assay with PC-3 prostate it was 40.3 µM; in the assay with SK-MEL-5 melanoma it was over 79.5 µM; in the assay on KM12 colon, 21.5 µM; in the assay on COLO 205 colon, 4.26 µM. The GI50 in the assay with MDA-MB-435 is 23 µM. Moreover, the TGI is 411 µM in the assay with KM20L2 colon; 61.1 µM and 126 µM in the assay on NCI/ADR-RES ovarian; 856 µM with SF-295 CNS; 1300 µM in the assay with PC-3 prostate; 604 µM in the assay with SK-MEL-5 melanoma; 34.4 µM in the assay on KM12 colon. For the same compound, the TGI with DMS 273 small cell lung was 650 µM; in the assay on COLO 205 colon, 33.1 µM and 21.5 µM; in the assay on MDA-MB-435, 452 µM; with DLD-1 colon, 2500 µM.
Turning to `Cn1cc(C2=C(c3cn(CCCCC(=N)N)c4ccccc34)C(=O)NC2=O)c2ccccc21`, the GI50 in the assay on NCI/ADR-RES ovarian was over 25 µM; in the assay on SF-295 CNS it was over 13.7 µM; in the assay with PC-3 prostate it was over 25 µM; with SK-MEL-5 melanoma it was over 23.6 µM; with KM12 colon, 20.3 µM; with COLO 205 colon it was 11.8 µM. Besides, the GI50 with MDA-MB-435 is 10.5 µM. In addition, the TGI in the assay on NCI/ADR-RES ovarian, with SF-295 CNS, in the assay on PC-3 prostate, in the assay on SK-MEL-5 melanoma, in the assay with KM12 colon and in the assay with COLO 205 colon was over 25 µM throughout. Also, the TGI with MDA-MB-435 is over 25 µM.
